Test results published in patent US20040146535A1, “Agent for improving tissue penetration” (priority 2001, published 2004).

How the values were obtained:
[1] = system: porcine brain microvascular endothelial cells (PBEC); assay: in vitro
Excerpt: (§1) Monolayers of primary cultures of porcine brain microvascular endothelial cells (PBEC) represent an in vitro model of the blood-brain barrier. They form monolayers under standard culture conditions both on various collagen coated solid substrates and permeable filters of polycarbonate. The PBEC-monolayer grows on the filter membranes in polarized manner with the apical side representing the capillary lumen but the basolateral side corresponding to brain tissue. As soon as the cells become confluent and build up a tight layer after 7 days PBEC are ready to be used for transport experiments. Due to the formation of functional tight junctions, they show a high transendothelial electrical resistance (TEER) and a tight barrier is created with biological properties similar to the cerebral capillary endothelium
(§2) The PBEC cells were cultivated in M199, which was supplemented with 10% OS, 0.7 mM L^−1 glutamine, 10,000 U·mL^−1 penicillin/streptomycin and 50·μg mL^−1 gentamicin at 37° C., 5% CO2 and saturated humidity. The cells were subcultivated after being detached with trypsin-EDTA solution and sown on Transwell(r) filter inserts (Costar®, Wiesbaden, Germany). The filters consist of polycarbonate with a surface of 1.13 cm2 and a pore diameter of 0.4 μm.
(§3) The growth of the PBEC into confluent, differentiated monolayers on Transwell® filter inserts was verified by measurements of the TEER. […] Fluorescein passes the monolayer paracellularly, whereas propranolol is transported transcellularly. The transport studies were carried out directly on the Transwell® plates. The culture medium M199 in the apical and the basolateral compartment was replaced by serum free medium DME/Ham's F12 supplemented as described for M199 and with 0.2 μg·mL^−1 hydrocortisone one day prior to the experiment. All transport experiments involving cell-cultures were carried out as triplicates. For application of substances on the apical side half of the medium of aspirated, mixed with appropriate stock solution of the substance to be investigated and replaced onto the filter. For qualification of transcellular transport by propranolol, KRB replaced the DME/Ham's F12 as transport buffer. For transport across cell free filter inserts, the complete medium in the apical compartment was removed, mixed with stock solution and replaced into the donor compartment. […] Propranolol was dissolved in KRB (pH 7.4). Samples were collected at 15′, 30′, 45′, 60′, and 90′ from the acceptor, at 0′ and 90′ from the donor compartment and the sample volume was replaced by fresh transport buffer. Prior to the experiment and after the final sampling, the TEER of the monolayers was measured.
(§4) The apparent permeability coefficient (Papp, [cm·s^−1]) was calculated according to equation 1, where dQ/dt is the permeability rate (steady state transport rate, [μg·s^−1]) obtained from the profile of the transported amount of the substrate against the time. A (1.13 cm^2) is the surface of the exposed cell monolayer, m0 the original mass [μg] of the marker substance in the donor compartment (VDonor 0.5 mL). The effective barrier function of the cell-layer is calculated from the apparent permeation coefficient and the permeation coefficient of the cell-free filter according to equation 2. In case that Papp is of higher magnitude than Pfilter, negative permeability coefficients would be calculated. Negative values for Peff are unsensical, thus an unhindered penetration of the cell-layer is to be drawn as conclusion. [formula]
(§5) In order to find an appropriate concentration affecting the permeation across the BBB, four different concentrations of hexyldiglycerol (HexylG2) were checked for their influence on fluorescein permeation and transendothelial electrical resistance.

in vitro = conditions: pig, permeability coefficient for fluorescein
Excerpt: as §1, §2, §3, §4, §5

[2] = system: porcine brain microvascular endothelial cells (PBEC); assay: Transendothelial electrical resistance (TEER) of PBEC monolayers; type: cell-based
Method: […]. Propranolol was dissolved in KRB (pH 7.4).
Since a more distinct effect was expected from in vivo findings, a concentration of 75 mM HexylG2 was selected to be tested with further impermeable markers.

## OCC(O)CO [^14C-glycerol, glycerol, reference compound]
[1]; pig, 90 min
  Peff, permeability coefficient of paracellular-transport marker: 0.96 ×10⁻⁶ cm/s

## O=C1OC2(c3ccc(O)cc3Oc3cc(O)ccc32)c2ccccc21 [fluorescein, reference compound]
In vitro; Papp
  Papp A→B at 90 min: 0.28 ×10⁻⁶ cm/s
In vitro; Peff
  Papp A→B at 90 min: 0.29 ×10⁻⁶ cm/s

## hexyldiglycerol [HexylG2]
[1]; 0.1 mM, 1 mM and 10 mM of HexylG2
  effect on the tightness of the model barrier (fluorescein permeation and TEER): no effect
[1]; 50 mM HexylG2 versus w/o
  enhancement of the penetration (permeability) of fluorescein: about twofold
[1]; treatment of PBEC monolayers, Example 4
  monolayer permeability towards glucose, inulin and glycerol: significantly increased
[2]; 50 mM HexylG2 (Table 1 experiment)
  change in TEER: decrease in TEER
[2]; 75 mM HexylG2 (Table 2 experiment)
  change in TEER: complete loss of TEER
